Test [1] has as its system AMO-1 human multiple myeloma tumor cell line. Nature of the test: AMO-1 cell viability assay (CellTiter-Glo, 24 hours). Format: cell-based. As to conditions: Homo sapiens, AMO1, 24 h, read-out: AMO-1 Viability IC50 (μM, 10% FBS), 10% FBS, 24 hours of compound treatment. A general note: In ATP-based viability assays light output follows the ATP content of the culture.
Test [2] relates to NCI-H929 human multiple myeloma tumor cell line. Kind of test: NCI-H929 cell viability assay (CellTiter-Glo, 24 hours). Format: cell-based. To be noted: Homo sapiens, NCI-H929, 24 h, read-out: H929 Viability IC50 (μM, 10% FBS), 10% FBS, 24 hours of compound treatment.
The target in test [3] is GST-MCL-1 (Homo sapiens, UniProt Q07820). Nature of the test: TR-FRET MCL-1 binding assay (competition with probe F-Bak). The gist of the method: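 Displacement of F-Bak from GST-MCL-1 is detected by time-resolved FRET with a Tb-labelled anti-GST antibody, with excitation 340/35 nm and emission 520/525 and 495/510 nm, after 2 hours at room temperature. Compounds were titrated in 11 three-fold steps starting at 25 μM final, in buffer alone or in 10% HS.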
A general note: Time-resolved FRET reads energy transfer from a long-lived donor to a nearby acceptor.

Where [4] appears, read: MCL-1 Binding Ki (nM, 10% HS), in the presence of 10% HS (human serum).
Setting [5] is: without HS, read-out: MCL-1 Binding Ki.

From patent publication US20250313572A1, “MACROCYCLIC MCL-1 INHIBITORS AND METHODS OF USE” (AbbVie Inc., priority 2017, published 2025) come the findings set out here.

Where two headings read alike, the source gives them in different places.

GST-MCL-1, sequence (Q07820 whole entry): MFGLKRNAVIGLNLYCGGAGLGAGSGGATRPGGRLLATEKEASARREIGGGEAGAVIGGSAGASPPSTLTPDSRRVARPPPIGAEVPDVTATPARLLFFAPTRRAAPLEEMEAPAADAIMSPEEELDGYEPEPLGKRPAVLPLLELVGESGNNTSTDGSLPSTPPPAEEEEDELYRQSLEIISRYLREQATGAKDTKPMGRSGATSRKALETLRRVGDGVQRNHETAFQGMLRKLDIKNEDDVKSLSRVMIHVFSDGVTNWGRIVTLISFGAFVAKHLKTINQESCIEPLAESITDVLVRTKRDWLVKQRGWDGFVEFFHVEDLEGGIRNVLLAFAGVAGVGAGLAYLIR

As usually defined, the IC50 is the concentration that inhibits the measured activity by half. As usually defined, the Ki is the equilibrium dissociation constant of an inhibitor or competing ligand from its target. Turning to `Cc1c(Cl)c2c(Cl)c(C)c1-c1c(-c3ccc(F)cc3)sc3ncnc(c13)O[C@@H](C(=O)O)Cc1cc(ccc1OCc1ccnc(C(CO)CO)n1)OC[C@@H](CN1CCN(C)CC1)O2` [Example 62, (7R,16R)-19,23-dichloro-10-{[2-(1,3-dihydroxypropan-2-yl)pyrimidin-4-yl]methoxy}-1-(4-fluorophenyl)-20,22-dimethyl-16-[(4-methylpiperazin-1-yl)methyl]-7,8,15,16-tetrahydro-18,21-etheno-9,13-(metheno)-6,14,17-trioxa-2-thia-3,5-diazacyclononadeca[1,2,3-cd]indene-7-carboxylic Acid], the IC50 in test [1] amounted to 0.0251 µM; in test [2] it was 0.095 µM. Further, the Ki in test [3] (setting [4]) worked out at 2.26 nM; in test [3] (setting [5]), 0.324 nM.

As for `COCCOCCOCCOCCOCCOC1(c2nccc(COc3ccc4cc3C[C@H](C(=O)O)Oc3ncnc5sc(-c6ccc(F)cc6)c(c35)-c3c(C)c(Cl)c(c(Cl)c3C)O[C@H](CN3CCN(C)CC3)CO4)n2)CCC1` [Example 63, (7R,16R)-19,23-dichloro-1-(4-fluorophenyl)-20,22-dimethyl-16-[(4-methylpiperazin-1-yl)methyl]-10-[(2-{1-[(2,5,8,11,14-pentaoxahexadecan-16-yl)oxy]cyclobutyl}pyrimidin-4-yl)methoxy]-7,8,15,16-tetrahydro-18,21-etheno-9,13-(metheno)-6,14,17-trioxa-2-thia-3,5-diazacyclononadeca[1,2,3-cd]indene-7-carboxylic Acid], the IC50 in test [1] was found to be 0.00205 µM; in test [2] it was 0.0032 µM. In addition, the results for the Ki in test [3] (setting [4]) and in test [3] (setting [5]) were 0.148 nM and 0.039 nM, respectively.

As for `COCCOCCOCCOCCOC1(c2nccc(COc3ccc4cc3C[C@H](C(=O)O)Oc3ncnc5sc(-c6ccc(F)cc6)c(c35)-c3c(C)c(Cl)c(c(Cl)c3C)O[C@H](CN3CCN(C)CC3)CO4)n2)CCC1` [Example 64, (7R,16R)-19,23-dichloro-1-(4-fluorophenyl)-20,22-dimethyl-16-[(4-methylpiperazin-1-yl)methyl]-10-[(2-{1-[(2,5,8,11-tetraoxatridecan-13-yl)oxy]cyclobutyl}pyrimidin-4-yl)methoxy]-7,8,15,16-tetrahydro-18,21-etheno-9,13-(metheno)-6,14,17-trioxa-2-thia-3,5-diazacyclononadeca[1,2,3-cd]indene-7-carboxylic Acid], the values for the IC50 in test [1] and in test [2] were 0.00163 µM and 0.00243 µM, respectively. Also, the Ki in test [3] (setting [4]) was determined as 0.167 nM; in test [3] (setting [5]) it was 0.038 nM.

With `Cc1c(Cl)c2c(Cl)c(C)c1-c1c(-c3ccc(F)cc3)sc3ncnc(c13)O[C@@H](C(=O)O)Cc1cc(ccc1OCc1ccnc(N3CC(C(CO)CO)C3)n1)OC[C@@H](CN1CCN(C)CC1)O2` [Example 65, (7R,16R)-19,23-dichloro-10-({2-[3-(1,3-dihydroxypropan-2-yl)azetidin-1-yl]pyrimidin-4-yl}methoxy)-1-(4-fluorophenyl)-20,22-dimethyl-16-[(4-methylpiperazin-1-yl)methyl]-7,8,15,16-tetrahydro-18,21-etheno-9,13-(metheno)-6,14,17-trioxa-2-thia-3,5-diazacyclononadeca[1,2,3-cd]indene-7-carboxylic Acid], the IC50 in test [1] amounted to 0.0209 µM; in test [2], 0.0596 µM. Further, the figures for the Ki in test [3] (setting [4]) and in test [3] (setting [5]) were 0.65 nM and 0.195 nM, respectively.

As to `COCCOCCOCCOCCOCCO[C@H]1CC[C@H](c2nccc(COc3ccc4cc3C[C@H](C(=O)O)Oc3ncnc5sc(-c6ccc(F)cc6)c(c35)-c3c(C)c(Cl)c(c(Cl)c3C)O[C@H](CN3CCN(C)CC3)CO4)n2)CC1` [Example 66, (7R,16R)-19,23-dichloro-1-(4-fluorophenyl)-20,22-dimethyl-16-[(4-methylpiperazin-1-yl)methyl]-10-[(2-{(1r,4r)-4-[(2,5,8,11,14-pentaoxahexadecan-16-yl)oxy]cyclohexyl}pyrimidin-4-yl)methoxy]-7,8,15,16-tetrahydro-18,21-etheno-13,9-(metheno)-6,14,17-trioxa-2-thia-3,5-diazacyclononadeca[1,2,3-cd]indene-7-carboxylic Acid], the results for the IC50 in test [1] and in test [2] were 0.000876 µM and 0.00121 µM, respectively. For the same molecule, the Ki amounted to 0.119 nM in test [3] (setting [4]) and 0.015 nM in test [3] (setting [5]).

Consider `COCCOCCOCCOCCOCCOCCO[C@H]1CC[C@H](c2nccc(COc3ccc4cc3C[C@H](C(=O)O)Oc3ncnc5sc(-c6ccc(F)cc6)c(c35)-c3c(C)c(Cl)c(c(Cl)c3C)O[C@H](CN3CCN(C)CC3)CO4)n2)CC1` [Example 67, (7R,16R)-19,23-dichloro-1-(4-fluorophenyl)-10-[(2-{(1r,4r)-4-[(2,5,8,11,14,17-hexaoxanonadecan-19-yl)oxy]cyclohexyl}pyrimidin-4-yl)methoxy]-20,22-dimethyl-16-[(4-methylpiperazin-1-yl)methyl]-7,8,15,16-tetrahydro-18,21-etheno-13,9-(metheno)-6,14,17-trioxa-2-thia-3,5-diazacyclononadeca[1,2,3-cd]indene-7-carboxylic Acid], for which the IC50 in test [1] was determined as 0.0011 µM; in test [2], 0.00176 µM. Besides, the Ki in test [3] (setting [4]) was 0.073 nM; in test [3] (setting [5]), 0.016 nM.

For `COCCOCCOCCOC[C@@H]1CN(c2nccc(COc3ccc4cc3C[C@H](C(=O)O)Oc3ncnc5sc(-c6ccc(F)cc6)c(c35)-c3c(C)c(Cl)c(c(Cl)c3C)O[C@H](CN3CCN(C)CC3)CO4)n2)CCO1` [Example 68, (7R,16R)-19,23-dichloro-1-(4-fluorophenyl)-20,22-dimethyl-16-[(4-methylpiperazin-1-yl)methyl]-10-({2-[(2S)-2-(2,5,8,11-tetraoxadodecan-1-yl)morpholin-4-yl]pyrimidin-4-yl}methoxy)-7,8,15,16-tetrahydro-18,21-etheno-13,9-(metheno)-6,14,17-trioxa-2-thia-3,5-diazacyclononadeca[1,2,3-cd]indene-7-carboxylic Acid], the IC50 in test [1] stood at 0.000426 µM; in test [2] it was 0.000938 µM. For the same molecule, the figures for the Ki in test [3] (setting [4]) and in test [3] (setting [5]) were 0.209 nM and 0.031 nM, respectively.

In the case of `COCCOCCOCCOCCO[C@H]1CC[C@H](c2nccc(COc3ccc4cc3C[C@H](C(=O)O)Oc3ncnc5sc(-c6ccc(F)cc6)c(c35)-c3c(C)c(Cl)c(c(Cl)c3C)O[C@H](CN3CCN(C)CC3)CO4)n2)CC1` [Example 69, (7R,16R)-19,23-dichloro-1-(4-fluorophenyl)-20,22-dimethyl-16-[(4-methylpiperazin-1-yl)methyl]-10-[(2-{(1r,4r)-4-[(2,5,8,11-tetraoxatridecan-13-yl)oxy]cyclohexyl}pyrimidin-4-yl)methoxy]-7,8,15,16-tetrahydro-18,21-etheno-13,9-(metheno)-6,14,17-trioxa-2-thia-3,5-diazacyclononadeca[1,2,3-cd]indene-7-carboxylic Acid], the values for the IC50 in test [1] and in test [2] were 0.000302 µM and 0.000615 µM, respectively. Further, the inhibition constant (Ki) in test [3] (setting [4]) was 0.053 nM; in test [3] (setting [5]) it was 0.012 nM.

Consider `COCCOCCOCCO[C@H]1CC[C@@H](c2nccc(COc3ccc4cc3C[C@H](C(=O)O)Oc3ncnc5sc(-c6ccc(F)cc6)c(c35)-c3c(C)c(Cl)c(c(Cl)c3C)O[C@H](CN3CCN(C)CC3)CO4)n2)CC1` [Example 70, (7R,16R)-19,23-dichloro-1-(4-fluorophenyl)-10-({2-[(1s,4s)-4-{2-[2-(2-methoxyethoxy)ethoxy]ethoxy}cyclohexyl]pyrimidin-4-yl}methoxy)-20,22-dimethyl-16-[(4-methylpiperazin-1-yl)methyl]-7,8,15,16-tetrahydro-18,21-etheno-13,9-(metheno)-6,14,17-trioxa-2-thia-3,5-diazacyclononadeca[1,2,3-cd]indene-7-carboxylic Acid], for which the IC50 in test [1] was found to be 0.000263 µM; in test [2], 0.000489 µM. For the same molecule, the Ki in test [3] (setting [4]) is 0.083 nM; in test [3] (setting [5]) it was 0.012 nM.

For the molecule `Cc1c(Cl)c2c(Cl)c(C)c1-c1c(-c3ccc(F)cc3)sc3ncnc(c13)O[C@@H](C(=O)O)Cc1cc(ccc1OCc1ccnc(-c3ccc(OCCN4CCP(C)(=O)CC4)cc3)n1)OC[C@@H](CN1CCN(C)CC1)O2` [Example 71, (7R,16R)-19,23-dichloro-1-(4-fluorophenyl)-20,22-dimethyl-10-[(2-{4-[2-(4-methyl-4-oxo-1, 4λ^5-azaphosphinan-1-yl)ethoxy]phenyl}pyrimidin-4-yl)methoxy]-16-[(4-methylpiperazin-1-yl)methyl]-7,8,15,16-tetrahydro-18,21-etheno-13,9-(metheno)-6,14,17-trioxa-2-thia-3,5-diazacyclononadeca[1,2,3-cd]indene-7-carboxylic Acid], the IC50 was found to be 0.00468 µM in test [1] and 0.00851 µM in test [2]. The Ki in test [3] (setting [4]) is 0.106 nM; in test [3] (setting [5]), 0.039 nM.

For the molecule `Cc1c(Cl)c2c(Cl)c(C)c1-c1c(-c3ccc(F)cc3)sc3ncnc(c13)O[C@@H](C(=O)O)Cc1cc(ccc1OCc1ccnc(C3(COCCOCCOC[C@H]4COCCO4)CCC3)n1)OC[C@@H](CN1CCN(C)CC1)O2` [Example 72, (7R,16R)-19,23-dichloro-10-{[2-(1-{[2-(2-{[(2R)-1,4-dioxan-2-yl]methoxy}ethoxy)ethoxy]methyl}cyclobutyl)pyrimidin-4-yl]methoxy}-1-(4-fluorophenyl)-20,22-dimethyl-16-[(4-methylpiperazin-1-yl)methyl]-7,8,15,16-tetrahydro-18,21-etheno-13,9-(metheno)-6,14,17-trioxa-2-thia-3,5-diazacyclononadeca[1,2,3-cd]indene-7-carboxylic Acid], the IC50 in test [1] was 0.000331 µM; in test [2], 0.000743 µM. Besides, the Ki is 0.184 nM in test [3] (setting [4]) and 0.064 nM in test [3] (setting [5]).
